The values that follow are results of earlier work, collected in patent publication US20220280463A1, “PHARMACEUTICAL FORMULATIONS COMPRISING DICLOFENAC” (FTF PHARMA PRIVATE LIMITED, priority 2019, published 2022).

SMILES strings stand for the structures.

The test system of this data set is erythrocytes. The conditions noted are these: aqueous solution of 2% propylene glycol, in 45 min.

Turning to `CC(O)CO` (stereo not shown) [propylene glycol], the haemolysis of erythrocytes was 100%.
